In series [1] the test system is T. rubrum (ATCC 28289). The series can be described thus: Susceptibility assay for dermatophytes (CLSI M38-A2, resazurin), MIC90. The format is cell-based. The settings on record: Trichophyton rubrum, ATCC28289, 96 h, 35 °C.
Series [2] deals with C. glabrata (ATCC 90030). The experiment in a line: Susceptibility test (CLSI M27-A3 broth microdilution, resazurin readout), MIC90. In kind it is cell-based, Candida glabrata. The settings on record: Nakaseomyces glabratus, ATCC90030, 24 h, 37 °C.
The next series can be described thus: in vitro. The following applies: human.
The subject of series [3] is C. krusei (ATCC 6258). The series can be described thus: Minimum fungicidal concentration (MFC). In kind it is cell-based, Candida krusei. The following applies: Pichia kudriavzevii, ATCC6258.
The subject of series [4] is Histoplasma capsulatum (G217-B/ATCC 26032). The experiment in a line: microbe, parasite or virus in culture. The format is cell-based. The settings on record: ATCC26032.
Series [5] deals with Trichophyton mentagrophytes (ATCC 11481). The experiment in a line: Susceptibility assay for dermatophytes (CLSI M38-A2, resazurin), MIC90. In kind it is cell-based. The settings on record: Trichophyton mentagrophytes, ATCC11481, 96 h, T. mentagrophytes, 35 °C, read-out: MIC90.
For series [6], the system named is Histoplasma capsulatum (G217-B/ATCC 26032). The experiment in a line: microbe, parasite or virus in culture. In kind it is cell-based. The settings on record: ATCC26032, 144 h.
For series [7], the system named is Cryptococcus neoformans (H99/ATCC 208821). The series can be described thus: Minimum fungicidal concentration (MFC). In kind it is cell-based. The following applies: ATCC208821, C. neoformans.
The test system of series [8] is Candida albicans (ATCC 90028). The series can be described thus: Minimum fungicidal concentration (MFC). The format is cell-based. The settings on record: ATCC90028, C. albicans.
Series [9] concerns C. krusei (ATCC 6258). The series can be described thus: Susceptibility test (CLSI M27-A3 broth microdilution, resazurin readout), MIC90. The following applies: Pichia kudriavzevii. In kind it is cell-based, Candida krusei.
Series [10] relates to T. rubrum (ATCC 28289). The experiment in a line: Minimum fungicidal concentration (MFC). In kind it is cell-based, Trichophyton rubrum. The settings on record: Trichophyton rubrum, ATCC28289.
Series [11] relates to Candida albicans (ATCC 90028). The series can be described thus: Susceptibility test (CLSI M27-A3 broth microdilution, resazurin readout), MIC90. In kind it is cell-based. The settings on record: ATCC90028, C. albicans, 24 h, 37 °C.
For series [12], the system named is Cryptococcus neoformans (H99/ATCC 208821). The description is as above. In kind it is cell-based.
For series [13], the system named is C. glabrata (ATCC 90030). The experiment in a line: Minimum fungicidal concentration (MFC). In kind it is cell-based, Candida glabrata. The following applies: Nakaseomyces glabratus, ATCC90030.
Series [14] concerns Trichophyton mentagrophytes (ATCC 11481). The experiment in a line: Minimum fungicidal concentration (MFC). The format is cell-based. The following applies: T. mentagrophytes; for MFC: Trichophyton mentagrophytes, ATCC11481.
Series [15] has as its system A549 (ATCC CCL-185) lung epithelial cell line. The experiment in a line: Cytotoxicity assay in monolayer by resazurin colorimetric method. In kind it is cell-based. The following applies: Homo sapiens, A549 cells, 72 h.
In series [16] the test system is Paracoccidioides brasiliensis (Pb 18). The experiment in a line: microbe, parasite or virus in culture. The format is cell-based. The following applies: Paracoccidioides brasiliensis.

Results on five molecules are retold here after PMC8950151, “Synthesis and Evaluation of the Antifungal and Toxicological Activity of Nitrofuran Derivatives” (Pharmaceutics, 2022).

≈ marks a conversion by molar mass, not a printed value. Where two headings read alike, the source gives them in different places.

In the case of `CSc1ccc(C(=O)/C=C/c2ccc([N+](=O)[O-])o2)cc1` [Compound 13], the MIC90 in the series on T. rubrum (ATCC 28289) [1] was 0.98 µg/mL (≈ 3.39 µM); in the series on C. glabrata (ATCC 90030) [2], greater than 250 µg/mL; in [5], 0.98 µg/mL (≈ 3.39 µM); in series [6] it was 125 µg/mL (≈ 432 µM); against C. krusei (ATCC 6258) [9] (ATCC6258, 24 h) it was greater than 250 µg/mL; in [11], greater than 250 µg/mL. In [12] (ATCC208821, 48 h), this molecule gave an MIC90 of no less than 250 µg/mL. Besides, the results for the IC50 (in “in vitro”; in [15]) were 4.15 µg/mL (≈ 14.3 µM) and 17.9 µg/mL (≈ 61.9 µM), respectively. The MFC in the series with C. krusei (ATCC 6258) [3] is greater than 250 µg/mL; in series [4], 125 µg/mL (≈ 432 µM); in [7] it was no less than 250 µg/mL; in series [8] it was greater than 250 µg/mL; against T. rubrum (ATCC 28289) [10], 1.95 µg/mL (≈ 6.74 µM); in the series on C. glabrata (ATCC 90030) [13] (C. glabrata, read-out: MFC), greater than 250 µg/mL. Also, the MFC in [14] and in series [16] was 0.98 µg/mL (≈ 3.39 µM) in each case.
In the case of `O=C(/C=C/c1ccc([N+](=O)[O-])o1)c1ccc(-n2ccnc2)cc1` [Compound 14], the MIC90 is 1.95 µg/mL (≈ 6.3 µM) against T. rubrum (ATCC 28289) [1]; 7.81 µg/mL (≈ 25.3 µM) against C. glabrata (ATCC 90030) [2]; 1.95 µg/mL (≈ 6.3 µM) in [5]; 7.81 µg/mL (≈ 25.3 µM) in series [6]; 15.6 µg/mL (≈ 50.4 µM) with C. krusei (ATCC 6258) [9] (ATCC6258, 24 h); 15.6 µg/mL (≈ 50.4 µM) in series [11]. The same molecule returned an MIC90 in series [12] (ATCC208821, 48 h) of 3.9 µg/mL (≈ 12.6 µM). Also, the half-maximal inhibitory concentration (IC50) in the series “in vitro” was 26.8 µg/mL (≈ 86.7 µM); in [15] it was 33.4 µg/mL (≈ 108 µM). Moreover, the MFC against C. krusei (ATCC 6258) [3] came out at 31.2 µg/mL (≈ 101 µM); in series [4] it was 7.81 µg/mL (≈ 25.3 µM); in series [7], 3.9 µg/mL (≈ 12.6 µM); in [8] it was 62.5 µg/mL (≈ 202 µM); in the series with T. rubrum (ATCC 28289) [10], 3.9 µg/mL (≈ 12.6 µM); against C. glabrata (ATCC 90030) [13], 7.81 µg/mL (≈ 25.3 µM). Besides, the MFC in series [14] and in series [16] was 1.95 µg/mL (≈ 6.3 µM) throughout.
`O=C(/C=C/c1ccc([N+](=O)[O-])o1)c1ccccc1` [Compound 8]: the MIC90 against T. rubrum (ATCC 28289) [1] was 0.98 µg/mL (≈ 4.03 µM); in the series with C. glabrata (ATCC 90030) [2] it was 7.81 µg/mL (≈ 32.1 µM); in series [5], 0.98 µg/mL (≈ 4.03 µM); in [6], 15.6 µg/mL (≈ 64.2 µM); with C. krusei (ATCC 6258) [9] (ATCC6258, 24 h), 250 µg/mL (≈ 1030 µM); in series [11] it was 7.8 µg/mL (≈ 32.1 µM). The molecule further had an MIC90 in series [12] (ATCC208821, 48 h) of 31.2 µg/mL (≈ 128 µM). The figures for the IC50 (in “in vitro”; in series [15]) were 6.66 µg/mL (≈ 27.4 µM) and 53.8 µg/mL (≈ 221 µM), respectively. Besides, the MFC against C. krusei (ATCC 6258) [3] is greater than 250 µg/mL; in series [4] it was 15.6 µg/mL (≈ 64.2 µM); in [7], 31.2 µg/mL (≈ 128 µM); in [8], greater than 250 µg/mL; in the series on T. rubrum (ATCC 28289) [10] it was 1.95 µg/mL (≈ 8.02 µM); in the series on C. glabrata (ATCC 90030) [13] (C. glabrata, read-out: MFC) it was greater than 250 µg/mL. Also, the MFC in series [14] and in series [16] was 1.95 µg/mL (≈ 8.02 µM) in each case.
For the molecule `O=C(NCc1ccccn1)c1ccc([N+](=O)[O-])o1` [Compound 4], the MIC90 against T. rubrum (ATCC 28289) [1] is 125 µg/mL (≈ 506 µM); with C. glabrata (ATCC 90030) [2], greater than 250 µg/mL; in series [5], 31.2 µg/mL (≈ 126 µM); in series [6], 3.9 µg/mL (≈ 15.8 µM); in the series on C. krusei (ATCC 6258) [9] (ATCC6258, 24 h), 250 µg/mL (≈ 1010 µM); in series [11] it was 250 µg/mL (≈ 1010 µM). In addition, the MIC90 in series [12] (ATCC208821, 48 h) stood at 31.2 µg/mL (≈ 126 µM). Further, the IC50 in “in vitro” amounted to 135 µg/mL (≈ 547 µM); in series [15], 29.5 µg/mL (≈ 119 µM). Also, the MFC against C. krusei (ATCC 6258) [3] was 250 µg/mL (≈ 1010 µM); in series [4], 3.9 µg/mL (≈ 15.8 µM); in [7], 62.5 µg/mL (≈ 253 µM); in series [8], greater than 250 µg/mL; against T. rubrum (ATCC 28289) [10] it was 125 µg/mL (≈ 506 µM); in the series with C. glabrata (ATCC 90030) [13] (C. glabrata, read-out: MFC), greater than 250 µg/mL. Moreover, the MFC is 250 µg/mL (≈ 1010 µM) in [14] and 7.81 µg/mL (≈ 31.6 µM) in [16]. In addition, the “fungistatic / fungicidal profile” value in [14] (MFC versus MIC90) is given as “fungistatic profile”.
`C[C@@H]1[C@H](O)[C@@H](C)/C=C/C=C/C=C/C=C/C=C/C=C/C=C/[C@H](O[C@@H]2O[C@H](C)[C@@H](O)[C@H](N)[C@@H]2O)C[C@@H]2O[C@](O)(C[C@@H](O)C[C@@H](O)[C@H](O)CC[C@@H](O)C[C@@H](O)CC(=O)O[C@H]1C)C[C@H](O)[C@H]2C(=O)O` [AmB, amphotericin B, reference compound]: the MIC90 in series [6] was found to be 0.03 µg/mL (≈ 0.0325 µM); in the series on C. krusei (ATCC 6258) [9] (ATCC6258, C. krusei, 24 h, 37 °C, read-out: MIC90), 1 µg/mL (≈ 1.08 µM); in series [12] (ATCC208821, C. neoformans, 48 h, 37 °C, read-out: MIC90) it was 0.06 µg/mL (≈ 0.0649 µM).
